The source of these data is ChEMBL document CHEMBL6103639, “Structure-Based Development of 3,4-Fused Tricyclic Benzofuran Derivatives as Polyketide Synthase 13 Inhibitors with Negligible hERG Inhibition” (J Med Chem, 2025).

In data set [1] the test system is Mycobacterium tuberculosis. Put plainly: Antitubercular activity against Mycobacterium tuberculosis H37Rv assessed as reduction in microbial growth by microplate alamar blue assay. In kind it is functional. For orientation: Resazurin is reduced to fluorescent resorufin, in cell work by metabolically active cells.
For data set [2], the system named is Mycobacterium tuberculosis. Put plainly: Antitubercular activity against Mycobacterium tuberculosis H37Rv assessed as reduction in microbial growth incubated for 6 days by microplate alamar blue assay. In kind it is functional. The note with it: 144 h, time 6 day.
In data set [3] the target is Polyketide synthase Pks13 (Mycobacterium tuberculosis (strain ATCC 25618 / H37Rv)) (UniProt I6X8D2). Briefly: Induction of stabilization of Mycobacterium tuberculosis H37Rv Pks-13 TE domain assessed as melting temperature incubated for 30 mins by NanoDSF assay.
Polyketide synthase Pks13 (Mycobacterium tuberculosis (strain ATCC 25618 / H37Rv)), sequence (I6X8D2 whole entry, the tested form may be a part): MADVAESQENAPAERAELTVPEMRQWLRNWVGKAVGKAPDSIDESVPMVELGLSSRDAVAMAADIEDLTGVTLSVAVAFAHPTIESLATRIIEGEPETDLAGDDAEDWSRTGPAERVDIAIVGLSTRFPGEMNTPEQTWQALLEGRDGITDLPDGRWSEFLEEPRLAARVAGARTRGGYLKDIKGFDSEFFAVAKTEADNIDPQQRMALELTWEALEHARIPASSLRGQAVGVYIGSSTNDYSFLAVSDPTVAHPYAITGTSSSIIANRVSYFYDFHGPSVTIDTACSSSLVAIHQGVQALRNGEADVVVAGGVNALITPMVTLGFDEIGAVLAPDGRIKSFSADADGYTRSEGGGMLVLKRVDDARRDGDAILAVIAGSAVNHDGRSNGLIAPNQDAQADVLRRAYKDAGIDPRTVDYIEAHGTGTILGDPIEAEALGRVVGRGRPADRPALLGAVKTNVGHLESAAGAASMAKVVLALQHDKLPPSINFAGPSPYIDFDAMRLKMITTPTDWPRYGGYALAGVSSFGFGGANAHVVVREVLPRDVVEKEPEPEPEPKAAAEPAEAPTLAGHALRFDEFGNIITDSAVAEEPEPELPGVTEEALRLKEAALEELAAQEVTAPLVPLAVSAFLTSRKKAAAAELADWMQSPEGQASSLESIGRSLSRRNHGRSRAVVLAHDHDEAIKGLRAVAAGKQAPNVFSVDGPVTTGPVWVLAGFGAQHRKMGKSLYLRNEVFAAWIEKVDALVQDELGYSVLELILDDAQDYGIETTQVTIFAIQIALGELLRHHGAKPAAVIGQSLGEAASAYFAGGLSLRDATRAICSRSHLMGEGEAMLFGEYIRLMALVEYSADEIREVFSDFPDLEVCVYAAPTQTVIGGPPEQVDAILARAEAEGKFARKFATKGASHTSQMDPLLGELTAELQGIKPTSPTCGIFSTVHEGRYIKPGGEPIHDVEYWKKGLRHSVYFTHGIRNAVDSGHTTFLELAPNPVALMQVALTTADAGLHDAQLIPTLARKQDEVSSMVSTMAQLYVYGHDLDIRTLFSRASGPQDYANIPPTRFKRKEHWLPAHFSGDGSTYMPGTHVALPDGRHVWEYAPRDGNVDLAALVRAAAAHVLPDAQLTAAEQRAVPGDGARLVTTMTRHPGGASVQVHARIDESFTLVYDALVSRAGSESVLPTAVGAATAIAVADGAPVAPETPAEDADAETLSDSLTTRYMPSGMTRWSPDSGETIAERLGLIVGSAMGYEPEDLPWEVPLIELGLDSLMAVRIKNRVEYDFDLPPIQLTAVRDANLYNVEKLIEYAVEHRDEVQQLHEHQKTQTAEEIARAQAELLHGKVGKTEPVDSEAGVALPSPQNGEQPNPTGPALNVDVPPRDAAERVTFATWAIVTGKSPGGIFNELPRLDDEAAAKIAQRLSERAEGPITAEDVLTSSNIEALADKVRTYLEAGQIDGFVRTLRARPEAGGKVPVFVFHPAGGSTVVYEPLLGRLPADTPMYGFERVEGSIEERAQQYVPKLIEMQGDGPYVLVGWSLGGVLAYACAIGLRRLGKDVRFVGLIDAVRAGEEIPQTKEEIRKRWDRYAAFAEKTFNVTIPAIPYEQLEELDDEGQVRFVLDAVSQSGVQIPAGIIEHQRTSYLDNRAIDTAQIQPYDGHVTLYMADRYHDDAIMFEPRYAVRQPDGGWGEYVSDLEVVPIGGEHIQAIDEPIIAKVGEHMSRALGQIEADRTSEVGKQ
The target of data set [4] is Polyketide synthase Pks13 (Mycobacterium tuberculosis (strain ATCC 25618 / H37Rv), UniProt I6X8D2). Briefly: Inhibition of Mycobacterium tuberculosis H37Rv Pks-13 TE domain using 4-MUH as fluorogenic substrate incubated for 90 mins by fluorescence based analysis.
Polyketide synthase Pks13, sequence (I6X8D2 whole entry, the tested form may be a part): as above
A short description of data set [5]: Metabolic stability in human liver microsomes assessed as intrinsic clearance at 0.1 uM measured upto 60 mins by LC/MS-MS analysis. The format is ADME, Microsome. The following applies: read-out: CLH. On the technique in general: Liver microsomes are a subcellular fraction often used to study metabolism.
Data set [6] can be described thus: Metabolic stability in human liver microsomes assessed as half life at 0.1 uM measured upto 60 mins by LC/MS-MS analysis. The format is ADME, Microsome.
Data set [7] has as its target Voltage-gated inwardly rectifying potassium channel KCNH2 (Homo sapiens, UniProt Q12809). Briefly: Inhibition of human ERG expressed in CHO cells incubated for 2.5 mins by Q-patch-clamp electrophysiological analysis. In kind it is toxicity, cell-based.
Data set [8] addresses Polyketide synthase Pks13 (Mycobacterium tuberculosis (strain ATCC 25618 / H37Rv)) (UniProt I6X8D2). Briefly: Induction of stabilization of Mycobacterium tuberculosis H37Rv Pks-13 TE domain assessed as change in melting temperature incubated for 30 mins by NanoDSF assay. (In general: In DSF a fluorescence change marks the thermal transition of the protein.)
Data set [9] in a line: Metabolic stability in human liver microsomes assessed as parent compound remaining at 0.1 uM incubated for 60 mins by LC/MS-MS analysis. In kind it is ADME, Microsome. The following applies: read-out: Stability.

Voltage-gated inwardly rectifying potassium channel KCNH2, sequence (Q12809 whole entry, the tested form may be a part): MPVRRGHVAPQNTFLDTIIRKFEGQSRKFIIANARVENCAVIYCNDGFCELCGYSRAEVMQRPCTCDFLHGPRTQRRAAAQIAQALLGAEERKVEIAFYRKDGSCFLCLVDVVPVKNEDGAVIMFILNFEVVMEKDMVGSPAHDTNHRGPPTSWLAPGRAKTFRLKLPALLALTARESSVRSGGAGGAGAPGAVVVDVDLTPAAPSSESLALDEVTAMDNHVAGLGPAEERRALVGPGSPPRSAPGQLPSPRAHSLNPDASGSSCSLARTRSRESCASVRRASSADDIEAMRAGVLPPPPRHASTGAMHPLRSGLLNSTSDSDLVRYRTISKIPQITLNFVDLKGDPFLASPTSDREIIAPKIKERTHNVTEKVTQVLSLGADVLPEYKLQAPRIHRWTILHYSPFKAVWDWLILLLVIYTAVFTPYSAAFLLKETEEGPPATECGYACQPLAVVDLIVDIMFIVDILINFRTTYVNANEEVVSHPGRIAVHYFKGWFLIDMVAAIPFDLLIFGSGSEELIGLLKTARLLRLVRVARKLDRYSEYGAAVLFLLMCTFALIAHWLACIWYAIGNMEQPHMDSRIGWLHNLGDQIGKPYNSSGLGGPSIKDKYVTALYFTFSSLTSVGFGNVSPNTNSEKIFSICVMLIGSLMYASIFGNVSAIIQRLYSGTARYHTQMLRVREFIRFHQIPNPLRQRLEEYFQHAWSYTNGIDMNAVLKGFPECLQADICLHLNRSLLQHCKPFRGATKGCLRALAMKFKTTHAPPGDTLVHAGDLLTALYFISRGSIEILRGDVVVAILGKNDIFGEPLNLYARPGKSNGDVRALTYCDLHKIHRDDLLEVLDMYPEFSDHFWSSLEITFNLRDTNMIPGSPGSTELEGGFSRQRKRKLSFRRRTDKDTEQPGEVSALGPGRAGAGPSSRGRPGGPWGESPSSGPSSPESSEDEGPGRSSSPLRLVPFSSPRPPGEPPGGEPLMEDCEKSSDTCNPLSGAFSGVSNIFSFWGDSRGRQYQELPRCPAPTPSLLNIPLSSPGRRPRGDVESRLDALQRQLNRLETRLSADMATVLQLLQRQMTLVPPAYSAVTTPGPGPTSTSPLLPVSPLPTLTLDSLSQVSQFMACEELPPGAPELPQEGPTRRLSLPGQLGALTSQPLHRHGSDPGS

Usually MIC stands for the smallest concentration in the dilution series that meets the test's criterion for growth inhibition. With `CC1c2c(O)ccc3c2c(cn3-c2ccc(Br)cc2)C(=O)CN1CC1CCC1` (stereo unspecified), the MIC in data set [1] was above 64 µg/mL.

On to `CCOC(=O)c1c(NC(=O)c2c(F)c(F)c(F)c(F)c2F)sc2c1CCN(CC)C2`, for which, in data set [2], the MIC turned out to be 0.23 µM.

As to `Oc1ccc2c3c(cn2-c2ccc(Br)cc2)CCN(CC2CC2)Cc13`, in data set [1], the MIC came to 16 µg/mL.

With `COc1ccc2oc(-c3ccc(O)cc3)c3c2c1CN(CC1CCC1)CN(C)C3=O`, the MIC in [1] stood at 64 µg/mL.

For `CN1CN(CC2CCC2)Cc2c(O)ccc3c2c(cn3-c2ccc(Br)cc2)C1=O`, the MIC in data set [1] came out at 8 µg/mL.

A word on the Tm: it is the temperature at the midpoint of the melting transition. Broadly, the IC50 is the point on the concentration scale where inhibition reaches its midpoint. A higher IC50 goes with a need for much substance. The half-life is the time in which the quantity being followed falls by half. As a reminder, the ΔTm is the shift of the melting midpoint relative to a reference. Regarding `CN1CN(C2CCCC2)Cc2c(O)ccc3oc(-c4ccc(O)cc4)c(c23)C1=O`, the Tm in data set [3] was determined as 66 °C. Further, the IC50 in data set [4] is 5.87 µM; in data set [7], above 100 µM. In addition, in [5], the microsomal CLint at 0.1 µM is 48 µL/min/mg. Also, the half-life at 0.1 µM in data set [6] worked out at 28.9 min. Also, the ΔTm in data set [8] came out at 7 °C. Besides, the MIC in data set [1] is 0.125 µg/mL. Besides, the remaining at 1 h, 0.1 µM in data set [9] worked out at 23.3%.

For `O=C1NCN(C2CCCC2)Cc2c(O)ccc3oc(-c4ccc(O)cc4)c1c23`, in data set [1], the MIC was determined as 0.5 µg/mL.

On to `CC1c2c(O)ccc3c2c(cn3-c2ccccc2)CCN1C1CCC1` (stereo unspecified), for which the MIC in data set [1] is 16 µg/mL.

With `CN1CN(CCC2CC2)Cc2c(O)ccc3oc(-c4ccc(O)cc4)c(c23)C1=O`, in data set [1], the MIC was determined as 0.25 µg/mL.

On to `C[C@]12CC[C@H]3[C@@H](CCC4=CC(=O)CC[C@@]43C)[C@@H]1CC[C@@H]2O` [TESTOSTERONE], for which the remaining at 1 h, 0.1 µM in data set [9] was 4.1%.

On to `CNC(=O)c1c(-c2ccc(O)cc2)oc2ccc(O)c(CN3CCCCC3)c12`, for which, in data set [3], the Tm was found to be 67.4 °C. Moreover, the ΔTm in data set [8] was 8.4 °C.

Regarding `CN1CN(CC2CCC2)Cc2c(O)ccc3oc(-c4cccc(O)c4)c(c23)C1=O`, the MIC in data set [1] turned out to be 0.125 µg/mL.

Regarding `O=C(O)Cc1ccccc1Nc1c(Cl)cccc1Cl` [DICLOFENAC], in [5], the microsomal CLint at 0.1 µM turned out to be 248 µL/min/mg.

For `O=c1oc2cc(O)ccc2c2oc3ccc(O)c(CN4CCCCC4)c3c12`, in data set [7], the IC50 worked out at 0.52 µM.

On to `CN1CN(C2CCC2)Cc2c(O)ccc3c2c(cn3-c2ccc(Br)cc2)C1=O`, for which the MIC in data set [1] came to 8 µg/mL.

In the case of `CC1c2c(O)ccc3c2c(cn3-c2ccccc2)CCN1CC1CCC1` (stereo unspecified), the minimal inhibitory concentration (MIC) in data set [1] was 8 µg/mL.

Consider `CN1CN(CC2CCC2)Cc2c(O)ccc3oc(-c4ccc(F)cc4)c(c23)C1=O`, for which the MIC in data set [1] is 2 µg/mL.

In the case of `CC1c2c(O)ccc3c2c(cn3-c2ccc(Br)cc2)CCN1CC1CCC1` (stereo unspecified), the MIC in data set [1] was determined as 8 µg/mL.

For the compound `COc1ccc(-c2oc3ccc(OC)c4c3c2C(=O)N(C)CN(CC2CCC2)C4)cc1`, the MIC in data set [1] was found to be 64 µg/mL.

With `COc1ccc(-c2oc3ccc(O)c4c3c2C(=O)N(C)CN(CC2CCC2)C4)cc1`, the MIC in data set [1] is 0.25 µg/mL.

In the case of `CN1CN(CCCC2CCCCC2)Cc2c(O)ccc3oc(-c4ccc(O)cc4)c(c23)C1=O`, in data set [1], the MIC was above 64 µg/mL.

In the case of `CN1CN(CC2CCCC2)Cc2c(O)ccc3oc(-c4ccc(O)cc4)c(c23)C1=O`, the MIC in data set [1] was 2 µg/mL.

As to `CN1CN(C2CCC2)Cc2c(O)ccc3oc(-c4ccc(O)cc4)c(c23)C1=O`, in data set [1], the minimum inhibitory concentration (MIC) was determined as 0.125 µg/mL.

For `CC(=O)c1c(C)n(-c2ccc(Br)cc2)c2ccc(O)c(CN3CCCCC3)c12`, the MIC in data set [1] was 0.125 µg/mL.

With `Oc1ccc2c3c(cn2-c2ccc(Br)cc2)CCN(C2CCC2)Cc13`, the MIC in data set [1] was found to be 16 µg/mL.

For `CN1CN(CC2CCC2)Cc2c(O)ccc3oc(-c4ccccc4)c(c23)C1=O`, in [1], the MIC came to 0.5 µg/mL.

In the case of `Oc1ccc2c3c(cn2-c2ccc(Br)cc2)CCN(CC2CCC2)Cc13`, in [5], the microsomal CLint at 0.1 µM was 26.9 µL/min/mg. The half-life at 0.1 µM in [6] was 51.5 min. Further, in data set [1], the MIC worked out at 8 µg/mL. Also, in data set [9], the remaining at 1 h, 0.1 µM was found to be 44.1%.

On to `CC(C)CN1Cc2c(O)ccc3oc(-c4ccc(O)cc4)c(c23)C(=O)N(C)C1`, for which the MIC in [1] was found to be 0.062 µg/mL.

`CN1CN(CC2CCCCC2)Cc2c(O)ccc3oc(-c4ccc(O)cc4)c(c23)C1=O`: in [1], the minimal inhibitory concentration (MIC) worked out at 16 µg/mL.

As to `CN1CN(CC2CCCC2)Cc2c(O)ccc3c2c(cn3-c2ccc(Br)cc2)C1=O`, the minimum inhibitory concentration (MIC) in data set [1] was above 64 µg/mL.

For `CN1CN(C2CCCC2)Cc2c(O)ccc3c2c(cn3-c2ccc(Br)cc2)C1=O`, in data set [1], the MIC amounted to 1 µg/mL.

`CN1CN(C2CCCCC2)Cc2c(O)ccc3oc(-c4ccc(O)cc4)c(c23)C1=O`: the MIC in data set [1] was determined as 8 µg/mL.

Regarding `CN1CN(CC2CC2)Cc2c(O)ccc3c2c(cn3-c2ccc(Br)cc2)C1=O`, the MIC in [1] was determined as 8 µg/mL.

For `CC(C)CCN1Cc2c(O)ccc3oc(-c4ccc(O)cc4)c(c23)C(=O)N(C)C1`, the MIC in data set [1] worked out at 0.25 µg/mL.

Take `CC1c2c(O)ccc3c2c(cn3-c2ccc(Br)cc2)CCN1CC1CC1` (stereo unspecified): the minimal inhibitory concentration (MIC) in data set [1] is 8 µg/mL.

Take `COc1cccc(-c2oc3ccc(O)c4c3c2C(=O)N(C)CN(CC2CCC2)C4)c1`: in data set [1], the MIC was 4 µg/mL.

Consider `CC1c2c(O)ccc3c2c(cn3-c2ccc(Br)cc2)C(=O)CN1CC1CC1` (stereo unspecified), for which the MIC in data set [1] was 32 µg/mL.

For `CC1c2c(O)ccc3c2c(cn3-c2ccccc2)CCN1CC1CC1` (stereo unspecified), the MIC in data set [1] was determined as 16 µg/mL.

With `CN1CN(CC2CCC2)Cc2c(O)ccc3oc(-c4ccc(O)cc4)c(c23)C1=O`, the Tm in [3] was 65.8 °C. The IC50 in [4] is 2.1 µM; in data set [7], above 100 µM. The microsomal CLint at 0.1 µM in [5] was 78.2 µL/min/mg. Also, in data set [6], the half-life at 0.1 µM came to 17.7 min. Besides, the ΔTm in data set [8] is 6.8 °C. Further, the MIC in [1] was determined as 0.016 µg/mL. The remaining at 1 h, 0.1 µM in [9] was determined as 8.2%.

The compound `CN1CN(CC2CC2)Cc2c(O)ccc3oc(-c4ccc(O)cc4)c(c23)C1=O` gave an IC50 in data set [7] above 100 µM. Besides, the MIC in data set [1] came to 0.031 µg/mL.

`CC1c2c(O)ccc3c2c(cn3-c2ccc(Br)cc2)CCN1C1CCC1` (stereo unspecified): the MIC in data set [1] was 8 µg/mL.

With `CC1c2c(O)ccc3c2c(cn3-c2ccc(Br)cc2)C(=O)CN1C1CCC1` (stereo unspecified), the MIC in [1] worked out at 64 µg/mL.
